Assay results as given in patent US5250679A, “Nonpeptidyl platelet aggregation inhibitors having specificity for the GPIIb III receptor” (Genentech, Inc., priority 1992, dated 1993).
pIC50: −log10 of the molar value. Where a name gives a salt, the structure may show the parent alone. Read-outs that look alike come from different tables or passages of the source.

Experiments:
GP IIb IIIa = molecular target: T1, GP IIb IIIa (Homo sapiens, UniProt P05106+P08514); assay: Fibrinogen-GP IIb IIIa Receptor ELISA Binding Assay (Fg/IIbIIIa); conditions: for pIC50: Example 29, Cmpd # 1-105, read-out: IC50 Fg/IIbI; for IC50: read-out: IC50 (μM) Fg/IIbIIIa
T1 construct: from tissue; host or cells: outdated human platelets
Summary of the method: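 Purified human platelet GP IIb IIIa binding to immobilised purified fibrinogen was run with compound at room temperature for 1 h. IC50 values were determined.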

[1] = system: human platelet rich plasma (PRP); assay: In Vitro Human Platelet Aggregation Assay (PA); type: cell-based
Protocol: In addition to the GPIIb IIIa ELISA assay, platelet aggregation assays may be performed in human platelet rich plasma (PRP). […] The blood is centrifuged at 160×g for 10 min at 22° C. and then allowed to stand for 5 min after which the PRP is decanted. Platelet poor plasma (PPP) is isolated from the remaining blood after centrifugation at 2000×g for 25 min. The platelet count of the PRP is adjusted to ca. 300,000 per microliter with PPP.
A 225 mL aliquot of PRP plus 25 mL of either a dilution of the test sample or a control (PBS) is incubated for 5 min in a Chrono-log Whole Blood Aggregometer at 25° C. An aggregating agent (collagen, 1 mg/ml; U46619, 100 ng/ml; or ADP, 8 mM) is added and the platelet aggregation recorded.
Platelet aggregation assays are performed in human platelet rich plasma (PRP). […] The blood is centrifuged at 160×g for 10 minutes at 22° C. and allowed to stand for 5 minutes after which the PRP is decanted. Platelet poor plasma (PPP) is isolated from the remaining blood after centrifugation at 2000×g for 25 minutes. The platelet count of the PRP is diluted to about 300,000 platelets per microliter with PPP.
A 225 ml aliquot of PRP plus 25 ml of either a dilution of the test inhibitor sample or a control (PBS) is incubated for 5 minutes in a Chrono-log Whole Blood Aggregometer at 25° C. An aggregating agent (collagen, 1 mg/ml; U46619, 100 ng/ml; or ADP, 17 mM) is added and the transmission is recorded.

[2] = molecular target: T2, Human Vitronectin receptor (av b3) (Homo sapiens, UniProt P05106+P06756); assay: Human Vitronectin-Vitronectin Receptor (av b3) ELISA Assay (Vn/VnR); type: binding; conditions: Example 30, G # table
T2 construct: is purified from human placenta; from tissue; host or cells: human placenta
Text: Human vitronectin (Vn) is isolated from human plasma and purified by affinity chromatography by the method of Yatohgo et. al., (Cell Structure and Function 13: 281-292 [1988]).
Human vitronection receptor (VnR) is purified from human placenta by the method of Pytela et al., (Methods Enzymol., 144: 475 [1987]). Alternatively the av b3 receptor can be purified from some cell lines (e.g., human embryonic kidney 293 cells) transfected with DNA sequences for both the av and b3 subunits. The subunits are purified by employing octylglucoside extraction followed by Con-A, Heparin-Sepharose, and S-300 Chromatography.
This mouse Mab is specific for the b3 subunit of the vitronectin receptor.
Rabbit Fab 2 anti-mouse Fc fragment horse radish peroxidase conjugate (anti-MuFc HRP) is obtained from PelFreeze (cat. no. 715305-1).
Maxisorp microtiter plates are coated with 2 mg/ml human vitronectin dissolved in PBS (50 ml/well) and stored overnight at 4° C. The plates are washed two times with PBS-0.05% Tween-20 (wash buffer) and blocked by incubating with about 150 ml/well of assay buffer (1%, BSA [RIA grade or better] in 50 mM Tris-HCl, 100 mM NaCl, 1 mM MgCl2, CaCl2, MnCl2 pH 7.4) for 60 minutes. […] The blocked plates are emptied and 25 ml/well of inhibitor or standard solution is added to each well. Twenty-five ml of a 30 mg/ml solution of purified av b3 in assay buffer is pipetted into the coated plate. The final concentration of receptor in the assay well is about 15 mg/ml. The plate is incubated on a shaker for 60 minutes. Meanwhile, for each microtite plate, 6 ml buffer solution containing 1.5 mg/ml of mouse monoclonal antibody specific for b3 is prepared. To this solution is added ml of the secondary antibody, which is anti-mouse-Fc-HRP antibody conjugate. For example, for one plate, prepare 6 ml of a 1.5 mg/ml mouse Mab solution to which is added 1 ml of anti-mouse-Fc-HRP antibody stock, (this represents a 1:6000 dilution of the antibody-HRP conjugate). This mixture is allowed to incubate during the receptor-inhibitor incubation. The assay plates are washed 4 times with PBS-Tween and 50 ml/well of the antibody mixture is then pipetted into the plate for a 60 minute incubation. The plate is washed 4 times and the color reaction is developed with 50 ml/well of 0.67 mg/ml o-phenyldiamine in PBS containing 0.012% H2 O2. Alternatively, 16 mM citric acid, 50 mM Na2 PO4 at pH 5.0 can be used as a substrate buffer. The reaction is stopped with 50 ml/well 1 M H2 SO4. The plates are read at 492-405 nm and the data analyzed by four-parameter fit.

[3] = Homo sapiens, Platelet, citrate, read-out: PA IC50 (μM) (citrate)
[4] = Homo sapiens, Platelet, heparin, read-out: PA IC50 (μM) (heparin)
[5] = Examples 29 and 30, Cmpd # tables

T1 sequence (P08514 32-887 limits assumed): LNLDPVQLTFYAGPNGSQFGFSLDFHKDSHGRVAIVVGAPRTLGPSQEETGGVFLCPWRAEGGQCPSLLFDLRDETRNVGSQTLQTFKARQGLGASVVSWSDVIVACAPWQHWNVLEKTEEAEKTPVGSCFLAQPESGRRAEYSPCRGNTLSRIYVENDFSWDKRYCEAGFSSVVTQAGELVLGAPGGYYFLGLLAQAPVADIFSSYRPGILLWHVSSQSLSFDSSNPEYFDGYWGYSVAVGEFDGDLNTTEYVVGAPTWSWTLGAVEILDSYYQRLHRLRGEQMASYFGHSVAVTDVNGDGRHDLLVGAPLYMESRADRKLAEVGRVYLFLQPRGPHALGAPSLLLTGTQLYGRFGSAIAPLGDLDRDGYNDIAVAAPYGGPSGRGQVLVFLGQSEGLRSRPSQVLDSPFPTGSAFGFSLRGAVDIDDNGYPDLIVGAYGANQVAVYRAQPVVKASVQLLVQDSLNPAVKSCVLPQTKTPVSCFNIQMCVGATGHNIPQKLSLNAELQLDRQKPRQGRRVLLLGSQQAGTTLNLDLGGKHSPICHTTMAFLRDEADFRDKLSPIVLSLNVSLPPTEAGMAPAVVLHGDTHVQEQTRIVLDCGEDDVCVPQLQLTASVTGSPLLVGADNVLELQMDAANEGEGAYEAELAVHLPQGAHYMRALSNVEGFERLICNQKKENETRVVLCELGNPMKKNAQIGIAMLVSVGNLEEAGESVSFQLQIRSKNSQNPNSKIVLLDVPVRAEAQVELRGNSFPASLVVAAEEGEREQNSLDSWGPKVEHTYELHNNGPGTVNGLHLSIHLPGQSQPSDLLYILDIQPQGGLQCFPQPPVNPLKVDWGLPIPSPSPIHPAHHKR
T1 sequence (P08514 891-1039 partner limits assumed): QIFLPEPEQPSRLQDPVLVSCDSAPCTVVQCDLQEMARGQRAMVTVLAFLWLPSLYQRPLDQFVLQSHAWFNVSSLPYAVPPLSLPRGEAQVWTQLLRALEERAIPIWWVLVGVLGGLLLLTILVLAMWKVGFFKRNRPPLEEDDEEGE
T1 sequence (P05106 27-788): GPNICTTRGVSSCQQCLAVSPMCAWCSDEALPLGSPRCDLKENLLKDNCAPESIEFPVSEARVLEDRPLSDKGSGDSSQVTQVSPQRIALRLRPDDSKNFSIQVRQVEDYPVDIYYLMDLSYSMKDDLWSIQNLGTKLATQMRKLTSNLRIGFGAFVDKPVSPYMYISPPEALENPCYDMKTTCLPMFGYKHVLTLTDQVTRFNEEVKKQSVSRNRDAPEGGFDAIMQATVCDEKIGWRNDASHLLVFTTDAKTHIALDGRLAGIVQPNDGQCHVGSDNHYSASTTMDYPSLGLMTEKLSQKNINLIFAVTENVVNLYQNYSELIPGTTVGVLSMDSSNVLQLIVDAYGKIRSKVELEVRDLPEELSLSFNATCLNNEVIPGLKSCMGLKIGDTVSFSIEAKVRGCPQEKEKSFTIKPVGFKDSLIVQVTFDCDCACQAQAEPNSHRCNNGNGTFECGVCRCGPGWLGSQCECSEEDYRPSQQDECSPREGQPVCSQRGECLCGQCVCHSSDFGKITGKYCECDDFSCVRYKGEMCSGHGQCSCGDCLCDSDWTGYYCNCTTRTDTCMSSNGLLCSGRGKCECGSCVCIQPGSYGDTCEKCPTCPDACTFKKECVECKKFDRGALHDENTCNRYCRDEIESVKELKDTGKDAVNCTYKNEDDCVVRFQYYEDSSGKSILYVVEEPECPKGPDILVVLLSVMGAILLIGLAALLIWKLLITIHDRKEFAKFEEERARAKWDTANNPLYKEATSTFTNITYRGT
T2 sequence (P06756 31-889 limits assumed): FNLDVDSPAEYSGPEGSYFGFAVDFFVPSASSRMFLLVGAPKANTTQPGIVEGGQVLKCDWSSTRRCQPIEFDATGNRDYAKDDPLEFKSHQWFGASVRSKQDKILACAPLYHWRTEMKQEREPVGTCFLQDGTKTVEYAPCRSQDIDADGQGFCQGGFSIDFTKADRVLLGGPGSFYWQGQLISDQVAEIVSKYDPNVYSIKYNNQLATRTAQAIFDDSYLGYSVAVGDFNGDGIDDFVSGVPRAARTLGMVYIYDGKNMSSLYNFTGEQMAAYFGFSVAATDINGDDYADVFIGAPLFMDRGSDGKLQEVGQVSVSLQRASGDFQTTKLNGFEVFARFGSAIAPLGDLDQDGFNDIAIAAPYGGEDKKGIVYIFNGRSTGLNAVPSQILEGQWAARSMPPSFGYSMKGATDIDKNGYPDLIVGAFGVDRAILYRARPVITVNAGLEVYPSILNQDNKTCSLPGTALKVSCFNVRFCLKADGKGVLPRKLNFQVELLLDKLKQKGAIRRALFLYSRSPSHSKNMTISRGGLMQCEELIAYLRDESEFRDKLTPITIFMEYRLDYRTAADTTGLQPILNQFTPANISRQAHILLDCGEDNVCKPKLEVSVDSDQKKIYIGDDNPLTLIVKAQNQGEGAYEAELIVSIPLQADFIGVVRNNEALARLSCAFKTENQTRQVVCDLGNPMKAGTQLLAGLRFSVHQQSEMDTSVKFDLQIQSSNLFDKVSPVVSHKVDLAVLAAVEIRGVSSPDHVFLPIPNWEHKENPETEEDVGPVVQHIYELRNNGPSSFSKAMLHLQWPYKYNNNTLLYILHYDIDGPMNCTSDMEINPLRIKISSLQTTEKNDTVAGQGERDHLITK
T2 sequence (P06756 891-1048 partner limits assumed): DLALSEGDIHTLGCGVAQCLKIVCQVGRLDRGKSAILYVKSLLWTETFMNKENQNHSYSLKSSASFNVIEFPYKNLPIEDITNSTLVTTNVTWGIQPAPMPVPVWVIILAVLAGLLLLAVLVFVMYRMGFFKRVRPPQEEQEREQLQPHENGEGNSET
T2 sequence (P05106 27-788): as the sequence (P05106 27-788) above

SMILES | pIC50 (GP IIb IIIa) | IC50 (GP IIb IIIa; Example 30, G # table) [µM] | IC50 [1, 3] [µM] | IC50 [1, 4] [µM] | IC50 [2] [µM] | IC50 ([1]; heparin, read-out: PA IC50 (μM) (heparin)) [µM] | IC50 (GP IIb IIIa; [5]) [µM]
CN1C(=O)CN(CCC(=O)O)C(=O)c2cc(C#Cc3ccc(CN)cc3)ccc21 [Cmpd 43, 1-(methyl)-4-(2-carboxyethyl)-7-[4-(aminomethyl)phenyl]ethynyl-3,4-dihydro-1H-1,4-benzodiazepine-2,5-dione trifluroacetate] | 7.92 | 0.012 | 1.7 | 3.34 | > 10 | – | –
N=C(N)NCCCC#Cc1ccc2c(c1)C(=O)N(CCC(=O)O)CC(=O)N2C(c1ccccc1)c1ccccc1 [Cmpd 71] | 8.10 | 0.008 | 0.34 | 0.95 | > 10 | – | –
NCCCC#Cc1ccc2c(c1)C(=O)N(CCC(=O)O)CC(=O)N2Cc1cccc([N+](=O)[O-])c1 [Cmpd 35, 1-(3-nitrobenzyl)-4-(2-carboxyethyl)-7-(5-amino-1-pentynyl)-3,4-dihydro-1H-1,4-benzodiazepine-2,5-dione trifluroacetate] | 7.89 | 0.013 | 2.4 | 8 | > 10 | 9.53 | –
N=C(N)NCCCCCCc1ccc2c(c1)C(=O)N(CCC(=O)O)CC(=O)N2Cc1cccc(NC(=O)CNC(=N)N)c1 [Cmpd 109] | – | 0.017 | 1.19 | – | > 10 | – | 0.017
NCCCCCCc1ccc2c(c1)C(=O)N(CCC(=O)O)CC(=O)N2Cc1cccc(NC(=O)CN)c1 [Cmpd 108] | – | 0.012 | 0.55 | 1.09 | > 10 | – | 0.012
NCCCCC#Cc1ccc2c(c1)C(=O)N(CCC(=O)O)CC(=O)N2Cc1ccc(Cl)cc1 [Cmpd 60] | 7.85 | 0.014 | 2.12 | – | > 10 | – | –
N=C(N)NCCCC#Cc1ccc2c(c1)C(=O)N(CCC(=O)O)CC(=O)N2Cc1cccc(NC(=O)CNC(=N)N)c1 [Cmpd 107] | – | 0.018 | 0.61 | 0.89 | > 10 | – | 0.018
CN1C(=O)CN(CCC(=O)O)C(=O)c2cc(C#CCCCCNC(=N)N)ccc21 [Cmpd 42, 1-(methyl)-4-(2-carboxyethyl)-7-(6-guanidino-1-hexynyl)-3,4-dihydro-1H-1,4-benzodiazepine-2,5-dione trifluroacetate] | 7.22 | 0.009 | 2.66 | – | > 10 | – | –
NCCCCCc1ccc2c(c1)C(=O)N(CCC(=O)O)CC(=O)N2C(c1ccccc1)c1ccccc1 [Cmpd 68, 1-(diphenylmethyl)-4-(2-carboxyethyl)-7-(5-aminopentyl)-3,4-dihydro-1H-1,4-benzodiazepine-2,5-dione trifluoroacetate] | 7.70 | 0.028 | 1.66 | 3.4 | > 10 | – | –
NCCCCC#Cc1ccc2c(c1)C(=O)N(CCC(=O)O)CC(=O)N2Cc1cccc([N+](=O)[O-])c1 [Cmpd 55, 1-(3-nitrobenzyl)-4-(2-carboxyethyl)-7-(6-amino-1-hexynyl)-3,4-dihydro-1H-1,4-benzodiazepine-2,5-dione trifuroacetate] | 8.10 | 0.008 | – | 2.2 | > 10 | – | –
NCCCCCCc1ccc2c(c1)C(=O)N(CCC(=O)O)CC(=O)N2Cc1cccc(NC(=O)CCN)c1 [Cmpd 110, 1-[3-(3-aminopropionyl)aminophenyl]methyl-4-(2-carboxyethyl)-7-(6-aminohexyl)-3,4-dihydro-1H-1,4-benzodiazapine-2,5-dione bistrifluoroacetate] | – | 0.008 | 0.28 | 0.83 | > 10 | – | 0.008
NCCCCCCc1ccc2c(c1)C(=O)N(CCC(=O)O)CC(=O)N2C(c1ccccc1)c1ccccc1 [Cmpd 72, 1-(diphenylmethyl)-4-(2-carboxyethyl)-7-(6-aminohexyl)-3,4-dihydro-1H-1,4-benzodiazepine-2,5-dione trifluoroacetate] | 7.66 | 0.022 | 0.46 | 1.1 | > 10 | – | –
NCCCCCCCc1ccc2c(c1)C(=O)N(CCC(=O)O)CC(=O)N2Cc1ccc(Cl)cc1 [Cmpd 66] | 7.59 | 0.026 | 3.88 | – | > 10 | – | –
CN1C(=O)CN(CCC(=O)O)C(=O)c2cc(C#CCCCNC(=N)N)ccc21 [Cmpd 34, 1-methyl-4-(2-carboxyethyl)-7-(5-guanidino-1-pentynyl)-3,4-dihydro-1H-1,4-benzodiazepine-2,5-dione trifluroacetate] | 8.44 | 0.0036 | 3.1 | 7.5 | > 10 | – | –
N=C(N)NCCCCCCc1ccc2c(c1)C(=O)N(CCC(=O)O)CC(=O)N2Cc1cccc(NC(=O)CCNC(=N)N)c1 [Cmpd 111] | – | 0.01 | 1.14 | 1.49 | > 10 | – | 0.01
CN1C(=O)CN(CCC(=O)O)C(=O)c2cc(C#CCCNC(=N)N)ccc21 [Cmpd 22] | 6.85 | 0.14 | 8.96 | – | > 10 | – | –
N=C(N)NCCCCCc1ccc2c(c1)C(=O)N(CCC(=O)O)CC(=O)N2C(c1ccccc1)c1ccccc1 [Cmpd 69, 1-(diphenylmethyl)-4-(2-carboxyethyl)-7-(5-guanidinopentyl)-3,4-dihydro-1H-1,4-benxodiazepine-2,5-dione trifluoroacetate] | 7.09 | 0.082 | 2.09 | 3.9 | > 10 | – | –
CN1C(=O)CN(CCC(=O)O)C(=O)c2cc(C#Cc3ccc(CNC(=N)N)cc3)ccc21 [Cmpd 44, 1-(methyl)-4-(2-carboxyethyl)-7-[4-(guanidinomethyl)phenyl]ethynyl-3,4-dihydro-1H-1,4-benzodiazepine-2,5-dione trifluroacetate] | 7.92 | 0.012 | 8.8 | 14.3 | > 10 | – | –
NCCCCCCc1ccc2c(c1)C(=O)N(CCC(=O)O)CC(=O)N2Cc1ccc(Cl)cc1 [Cmpd 64, 1-(4-chlorophenyl)methyl-4-(2-carboxyethyl)-7-(6-aminohexyl)-3,4-dihydro-1H-1,4-benzodiazapine-2,5-dione] | 7.85 | 0.014 | 1.2 | 4.76 | > 10 | – | –
N=C(N)NCCCc1ccc2c(c1)C(=O)N(CCC(=O)O)CC(=O)N2 [Cmpd 2] | 6.15 | 0.714 | > 5 | – | > 10 | – | –
N=C(N)NCCCCCc1ccc2c(c1)C(=O)N(CCC(=O)O)CC(=O)N2Cc1ccc(Cl)cc1 [Cmpd 63] | 7.96 | 0.011 | 2.55 | – | > 10 | – | –
NCCCCCCc1ccc2c(c1)C(=O)N(CCC(=O)O)CC(=O)N2Cc1ccc2ccccc2c1 [Cmpd 83, 1-(2-napthyl)methyl-4-(2-carboxyethyl)-7-(6-aminohexyl)-3,4-dihydro-1H-1,4-benzodiazepine-2,5-dione trifluoroacetate] | 7.77 | 0.017 | 3.19 | – | – | – | –
N=C(N)NCCCCCCc1ccc2c(c1)C(=O)N(CCC(=O)O)CC(=O)N2Cc1cccc(NC(=O)CCCCCNC(=N)N)c1 [Cmpd 117] | – | 0.013 | 0.64 | – | – | – | 0.013
N=C(N)NCCCCC#Cc1ccc2c(c1)C(=O)N(CCC(=O)O)CC(=O)N2Cc1cccc([N+](=O)[O-])c1 [Cmpd 56, 1-(3-nitrobenzyl)-4-(2-carboxyethyl)-7-(6-guanidino-1-hexynyl)-3,4-dihydro-1H-1,4-benzodiazepine-2,5-dione trifluroacetate] | 8.22 | 0.006 | – | 15 | > 10 | – | –
NCCCCCc1ccc2c(c1)C(=O)N(CCC(=O)O)CC(=O)N2Cc1cccc2ccccc12 [Cmpd 78, 1-(1-napthyl)methyl-4-(2-carboxyethyl)-7-(5-aminopentyl)-3,4-dihydro-1H-1,4-benzodiazepine-2,5-dione trifluoroacetate] | 7.18 | 0.066 | 6.53 | – | – | – | –
